Experimental data as given in US5820881A, “Microspheres of diamide-dicarboxylic acids” (Emisphere Technologies, Inc., priority 1995, dated 1998).
“Also recorded” adds a separate entry of the source. Counter-ions that a name gives are not always drawn. Like-named read-outs stand apart in the source and are kept apart here.

Legend:
Assay type in all cases: physicochemical
[1] = pH dependence of microsphere formation (turbidity, % transmittance at 600 nm); settings: for pH at which % T is > 95%: amide concentration 50 mM in 500 mM Li citrate
Protocol: 500 μL of 100 mM dilithium diamide solution prepared according to the method of Example 21 was mixed with an equal volume of one of a series of 1M lithium citrate buffers containing between 0 to 1 equivalent of lithium hydroxide so that the final measured pH of the mixture ranged from ca. 2.4 to 4.0. Turbidity was assessed over this pH range by measuring % transmittance at 600 nm.
The method of Example 25 was followed substituting the bis-amide dicarboxylic acid prepared according to the method of Example 5.
The method of Example 25 was followed substituting the bis-amide dicarboxylic acid prepared according to the method of Example 6.
The method of Example 25 was followed substituting the bis-amide dicarboxylic acid prepared according tot he method of Example 15.
(§1) Each of the compounds of Examples 4-6 and 15 was evaluated by monitoring the change in the solution turbidity, while altering the pH at a fixed Phe amide concentration or by holding the pH constant and varying the concentration of the amide substrate. Each concentration dependence was determined in 500 mM citric acid from a plot of the solution transmittance (% T) vs. concentration. […] The influence of pH on solution turbidity was studied in solutions containing 50 mM in 500 mM lithium citrate buffers. The percent transmittance (% T) was <0.5% at pH 2.67 and >95% at pH 3.26. The pKas were determined by titration of each Phe amide substrate. As expected, the pKas of these Phe diamide diacids were all very similar.

[2] = Concentration dependence of microsphere formation (turbidity, % transmittance at 600 nm); settings: for Concentration of amide above which a dense suspension (% T < 0.5) of microspheres is formed: 500 mM citric acid (pH 2.4)
Protocol: A stock solution containing the lithium salt of the diamide prepared according to the method of Example 4 was prepared by stepwise addition of exactly two equivalents of a standardized solution of LiOH (stored under argon to prevent precipitation of lithium carbonate). The final concentration of the dilithium salt of the diamine was 100 mM, and the pH was always between 7.0 and 8.0. The solution was filtered through a 0.2 μm membrane prior to use. An appropriate amount of the 100 mM stock solution was diluted with deionized water to 500 μL. Microsphere formation was then initiated by addition of an equal volume of 1M citric acid, so that the final concentration ranged from 0 to 50 mM dilithium diamide in 500 mM citric acid with the pH below 2.5. Turbidity was assessed over this range of concentrations by measuring % transmittance at 600 nm. […]
as §1

[3] = Microsphere formation (Li2CO3 solution mixed with aqueous citric acid; microscopic examination); settings: for Microsphere formation / self-assembly: aqueous salt solution + citric acid; for Diameter of spheres: from 10 μm to submicrons, light microscopy
Protocol: The bis-amide dicarboxylic acid prepared according to the method of Example 4 was dissolved in 0.1 mL of aqueous Li2 CO3 (0.1M) to yield a clear solution of the lithium salt in deionized water. 50 μL of the 0.1M solution was mixed with 50 μL of 1M aqueous citric acid and shaken. A white suspension was generated.
The method of Example 17 was followed, substituting the bis-amide dicarboxylic acid prepared according to the method of Example 5. A white suspension was generated.
The method of Example 17 was followed, substituting the bis-amide dicarboxylic acid prepared according to the method of Example 6. A white suspension was generated.
The method of Example 17 was followed, substituting the bis-amide dicarboxylic acid prepared according to the method of Example 15. A white suspension was generated.

[4] = pKa determination by titration
Protocol: as §1

[5] = SEM/TEM examination of microcapsules (tannic acid / OsO4 fixation)
Protocol: The sodium salt of the bis-amide dicarboxylic acid of Example 6 was prepared. A white suspension was prepared by combining 100 μL of 0.43M citric acid and 50 μL of a 0.1M aqueous solution of the sodium salt of the diamide. The aqueous suspension was deposited on polylysine-coated glass coverslips and fixed with 2% OsO4 for 4 hours. The sample was washed with distilled water, air dried and sputter coated with gold. SEM photographs are illustrated in FIGS. 3a and 3b.
A white suspension was also prepared by adding a solution containing 50 μL of a 0.86M citric acid and 50 μL of 3 wt. % tannic acid to 50 μL of a 100 mM aqueous solution of the sodium salt of the diamide. The pH was lowered from 7.7 to 2.4. The aqueous solution was deposited on a Nucleopore filter and fixed with 4% OsO4 for 4 hours. The sample was washed with distilled water and 95% EtOH and was air dried. The sample was dispersed in 100% LR white resin and polymerized in an oven at 60° C. TEM photographs are illustrated in FIG. 4.
Estimates of the microcapsule shell thickness (150 nm) would require approximately 100 molecules of the diamide of Example 6 oriented end-to-end to traverse the microcapsule shell. However, a stacking of the bis amides seems more likely. A stacked array would allow for a greater number of assembled tetrapeptides to traverse the capsule shell. […] However, some tannic acid may be intercalated in the microsphere wall.

SMILES	pH at which % T is > 95% [1]	Concentration of amide above which a dense suspension (% T < 0.5) of microspheres is formed [2] [µM]	Microsphere formation / self-assembly [3]	Diameter of spheres [3] [μm]	pKa ([4]; read-out: pKa1)	pKa ([4]; read-out: pKa2)	also measured
O=C(CC(=O)N[C@@H](Cc1ccccc1)C(=O)O)N[C@@H](Cc1ccccc1)C(=O)O [Example 4, bis(Nα-amido-L-phenylalanine) malonate]	3.26	30000	formation of tiny spheres; also recorded: generated microcapsules	≤ 10	3.67	4.7	Percent transmittance (% T) at pH 2.67 ([1]; 50 mM in 500 mM lithium citrate buffers, pH 2.67): < 0.5%; Percent transmittance (% T) at pH 3.26 ([1]; 50 mM in 500 mM lithium citrate buffers, pH 3.26): > 95%; Estimated number of diamide molecules per one anionic species sufficient to abort assembly ([1]; estimated from pKa and pH measurements): ~30 molecules; % transmittance, clear solution ([2]; 500 mM citric acid, before transition at 30 mM, 600 nm): > 95 % T; % transmittance, dense suspension of microcapsules ([2]; 500 mM citric acid, diamide above 30 mM, 600 nm): 0.2 % T
CC(C)(C(=O)N[C@@H](Cc1ccccc1)C(=O)O)C(=O)N[C@@H](Cc1ccccc1)C(=O)O [Example 5, bis(Nα-amido-L-phenylalanine) 1,1-dimethyl malonate]	3.26	25000	formation of tiny spheres	≤ 10	3.55	4.62	
O=C(O)[C@H](Cc1ccccc1)NC(=O)C1(C(=O)N[C@@H](Cc2ccccc2)C(=O)O)CC1 [Example 6, bis(Nα-amido-L-phenylalanine) 1,1 -cyclopropane dicarboxylate]	3.26	13000	formation of tiny spheres	≤ 10	3.53	4.5	Incorporation of tannic acid into the microsphere shell [5]: Little tannic acid was incorporated into the microsphere shell; Molecules oriented end-to-end required to traverse the microcapsule shell ([5]; shell thickness 150 nm): approximately 100 molecules; Estimated microcapsule shell thickness ([5]; sodium salt, citric acid + tannic acid, TEM): ~150 nm
O=C(N[C@@H](Cc1ccccc1)C(=O)O)C(=O)N[C@@H](Cc1ccccc1)C(=O)O [Example 8, bis(Nα-amido-L-phenylalanine) oxalate]			neither the oxalic derivative of Example 8 nor the succinic analogue of Example 12 did; also recorded: did not form microspheres				
O=C(O)CCC(=O)N[C@@H](Cc1ccccc1)C(=O)O [Example 11, (Nα-amido-L-phenylalanine) monosuccinate]			did not form microspheres				
O=C(CCC(=O)N[C@@H](Cc1ccccc1)C(=O)O)N[C@@H](Cc1ccccc1)C(=O)O [Example 12, bis(Nα-amido-L-phenylalanine) succinate]			neither the oxalic derivative of Example 8 nor the succinic analogue of Example 12 did; also recorded: does not self assemble; also recorded: did not form microspheres				
O=C(/C=C\C(=O)N[C@@H](Cc1ccccc1)C(=O)O)N[C@@H](Cc1ccccc1)C(=O)O [Example 15, bis(Nα-amido-L-phenylalanine) maleate]	3.26	23000	formation of tiny spheres; also recorded: generated microcapsules	≤ 10	3.7	4.87	
O=C(/C=C/C(=O)N[C@@H](Cc1ccccc1)C(=O)O)N[C@@H](Cc1ccccc1)C(=O)O [Example 16, bis(Nα-amido-L-phenylalanine) fumarate]			did not form microspheres				
